Source: patent US12077503B2, “Substituted cyclic amides and their use as herbicides” (FMC CORPORATION, priority 2015, dated 2024)

Assays:
Assay in all cases: Test D preemergence
Type in all cases: in vivo
Settings in all cases: scale 0 to 100
[1] = tested on: Galium (catchweed bedstraw, Galium aparine)
Excerpt: (§1) Seeds of plant species selected from bluegrass (annual bluegrass, Poa annua), blackgrass (Alopecurus myosuroides), canarygrass (littleseed canarygrass, Phalaris minor), chickweed (common chickweed, Stellaria media), Galium (catchweed bedstraw, Galium aparine), bromegrass, downy (downy bromegrass, Bromus tectorum), field poppy (Papaver rhoeas), field violet (Viola arvensis), foxtail, green (green foxtail, Setaria viridis), deadnettle (henbit deadnettle, Lamium amplexicaule), ryegrass, Italian (Italian ryegrass, Lolium multiflorum), Kochia (Kochia scoparia), lambsquarters (Chenopodium album), oilseed rape (Brassica napus), pigweed (Amaranthus retroflexus), chamomile (scentless chamomile, Matricaria inodora), Russian thistle (Salsola kali), speedwell (bird's-eye speedwell, Veronica persica), barley, spring (spring barley, Hordeum vulgare), wheat, spring (spring wheat, Triticum aestivum), buckwheat, wild (wild buckwheat, Polygonum convolvulus), mustard, wild (wild mustard, Sinapis arvensis), oat, wild (wild oat, Avena fatua), radish, wild (wild radish, Raphanus raphanistrum), windgrass (Apera spica-venti), barley, winter (winter barley Hordeum vulgare), and wheat, winter (winter wheat, Triticum aestivum) were planted into a silt loam soil and treated preemergence with test chemicals formulated in a non-phytotoxic solvent mixture which included a surfactant.
(§2) Treated plants and controls were maintained in a controlled growth environment approximately 21 d after which time all species were compared to controls and visually evaluated. Plant response ratings, summarized in Table D, are based on a scale of 0 to 100 where 0 is no effect and 100 is complete control. A dash (-) response means no test result.

[2] = tested on: Russian thistle (Salsola kali)
Excerpt: as §1, §2

[3] = tested on: barley, winter (winter barley Hordeum vulgare)
Excerpt: as §1, §2

[4] = tested on: blackgrass (Alopecurus myosuroides)
Excerpt: as §1, §2

[5] = tested on: bluegrass (annual bluegrass, Poa annua)
Excerpt: as §1, §2

[6] = tested on: bromegrass, downy (downy bromegrass, Bromus tectorum)
Excerpt: as §1, §2

[7] = tested on: buckwheat, wild (wild buckwheat, Polygonum convolvulus)
Excerpt: as §1, §2

[8] = tested on: canarygrass (littleseed canarygrass, Phalaris minor)
Excerpt: as §1, §2

[9] = tested on: chamomile (scentless chamomile, Matricaria inodora)
Excerpt: as §1, §2

[10] = tested on: chickweed (common chickweed, Stellaria media)
Excerpt: as §1, §2

[11] = tested on: deadnettle (henbit deadnettle, Lamium amplexicaule)
Excerpt: as §1, §2

[12] = tested on: field violet (Viola arvensis)
Excerpt: as §1, §2

[13] = tested on: foxtail, green (green foxtail, Setaria viridis)
Excerpt: as §1, §2

[14] = tested on: lambsquarters (Chenopodium album)
Excerpt: as §1, §2

[15] = tested on: mustard, wild (wild mustard, Sinapis arvensis)
Excerpt: as §1, §2

[16] = tested on: oat, wild (wild oat, Avena fatua)
Excerpt: as §1, §2

[17] = tested on: oilseed rape (Brassica napus)
Excerpt: as §1, §2

[18] = tested on: radish, wild (wild radish, Raphanus raphanistrum)
Excerpt: as §1, §2

[19] = tested on: ryegrass, Italian (Italian ryegrass, Lolium multiflorum)
Excerpt: as §1, §2

[20] = tested on: wheat, spring (spring wheat, Triticum aestivum)
Excerpt: as §1, §2

[21] = tested on: wheat, winter (winter wheat, Triticum aestivum)
Excerpt: as §1, §2

[22] = tested on: windgrass (Apera spica-venti)
Excerpt: as §1, §2

SMILES: CN1CC(c2cccc(C(F)(F)F)c2)C(C(=O)Nc2cccc(F)c2F)C1=O (stereo not drawn) [Compound 636]
- Plant response rating: Galium ([1]; 31 g ai/ha): 0
- Plant response rating: Galium ([1]; 62 g ai/ha): 15
- Plant response rating: Galium ([1]; 125 g ai/ha): 30
- Plant response rating: Galium ([1]; 250 g ai/ha): 60
- Plant response rating: Russian Thistle ([2]; 31 g ai/ha): 0
- Plant response rating: Russian Thistle ([2]; 62 g ai/ha): 40
- Plant response rating: Russian Thistle ([2]; 125 g ai/ha): 50
- Plant response rating: Russian Thistle ([2]; 250 g ai/ha): 60
- Plant response rating: Barley, Winter ([3]; 31 g ai/ha): 5
- Plant response rating: Barley, Winter ([3]; 62 g ai/ha): 45
- Plant response rating: Barley, Winter ([3]; 125 g ai/ha): 55
- Plant response rating: Barley, Winter ([3]; 250 g ai/ha): 80
- Plant response rating: Blackgrass ([4]; 31 g ai/ha): 25
- Plant response rating: Blackgrass ([4]; 62 g ai/ha): 30
- Plant response rating: Blackgrass ([4]; 125 g ai/ha): 60
- Plant response rating: Blackgrass ([4]; 250 g ai/ha): 75
- Plant response rating: Bluegrass ([5]; 31 g ai/ha): 35
- Plant response rating: Bluegrass ([5]; 62 g ai/ha): 95
- Plant response rating: Bluegrass ([5]; 125 g ai/ha): 90
- Plant response rating: Bluegrass ([5]; 250 g ai/ha): 100
- Plant response rating: Bromegrass, Downy ([6]; 31 g ai/ha): 10
- Plant response rating: Bromegrass, Downy ([6]; 62 g ai/ha): 20
- Plant response rating: Bromegrass, Downy ([6]; 125 g ai/ha): 55
- Plant response rating: Bromegrass, Downy ([6]; 250 g ai/ha): 80
- Plant response rating: Buckwheat, Wild ([7]; 31 g ai/ha): 5
- Plant response rating: Buckwheat, Wild ([7]; 62 g ai/ha): 75
- Plant response rating: Buckwheat, Wild ([7]; 125 g ai/ha): 90
- Plant response rating: Buckwheat, Wild ([7]; 250 g ai/ha): 80
- Plant response rating: Canarygrass ([8]; 31 g ai/ha): 65
- Plant response rating: Canarygrass ([8]; 62 g ai/ha): 85
- Plant response rating: Canarygrass ([8]; 125 g ai/ha): 90
- Plant response rating: Canarygrass ([8]; 250 g ai/ha): 95
- Plant response rating: Chamomile ([9]; 31 g ai/ha): 90
- Plant response rating: Chamomile ([9]; 62 g ai/ha): 100
- Plant response rating: Chamomile ([9]; 125 g ai/ha): 100
- Plant response rating: Chamomile ([9]; 250 g ai/ha): 100
- Plant response rating: Chickweed ([10]; 31 g ai/ha): 85
- Plant response rating: Chickweed ([10]; 62 g ai/ha): 85
- Plant response rating: Chickweed ([10]; 125 g ai/ha): 90
- Plant response rating: Chickweed ([10]; 250 g ai/ha): 90
- Plant response rating: Deadnettle ([11]; 31 g ai/ha): 0
- Plant response rating: Deadnettle ([11]; 62 g ai/ha): 35
- Plant response rating: Deadnettle ([11]; 125 g ai/ha): 70
- Plant response rating: Deadnettle ([11]; 250 g ai/ha): 75
- Plant response rating: Field Violet ([12]; 31 g ai/ha): 0
- Plant response rating: Field Violet ([12]; 62 g ai/ha): 0
- Plant response rating: Field Violet ([12]; 125 g ai/ha): 35
- Plant response rating: Field Violet ([12]; 250 g ai/ha): 85
- Plant response rating: Foxtail, Green ([13]; 31 g ai/ha): 100
- Plant response rating: Foxtail, Green ([13]; 62 g ai/ha): 100
- Plant response rating: Foxtail, Green ([13]; 125 g ai/ha): 100
- Plant response rating: Foxtail, Green ([13]; 250 g ai/ha): 100
- Plant response rating: Lambsquarters ([14]; 31 g ai/ha): 35
- Plant response rating: Lambsquarters ([14]; 62 g ai/ha): 70
- Plant response rating: Lambsquarters ([14]; 125 g ai/ha): 80
- Plant response rating: Lambsquarters ([14]; 250 g ai/ha): 90
- Plant response rating: Mustard, Wild ([15]; 31 g ai/ha): 0
- Plant response rating: Mustard, Wild ([15]; 62 g ai/ha): 15
- Plant response rating: Mustard, Wild ([15]; 125 g ai/ha): 15
- Plant response rating: Mustard, Wild ([15]; 250 g ai/ha): 85
- Plant response rating: Oat, Wild ([16]; 31 g ai/ha): 5
- Plant response rating: Oat, Wild ([16]; 62 g ai/ha): 30
- Plant response rating: Oat, Wild ([16]; 125 g ai/ha): 80
- Plant response rating: Oat, Wild ([16]; 250 g ai/ha): 85
- Plant response rating: Oilseed Rape ([17]; 31 g ai/ha): 10
- Plant response rating: Oilseed Rape ([17]; 62 g ai/ha): 30
- Plant response rating: Oilseed Rape ([17]; 125 g ai/ha): 60
- Plant response rating: Oilseed Rape ([17]; 250 g ai/ha): 65
- Plant response rating: Radish, Wild ([18]; 62 g ai/ha): 25
- Plant response rating: Radish, Wild ([18]; 125 g ai/ha): 65
- Plant response rating: Radish, Wild ([18]; 250 g ai/ha): 100
- Plant response rating: Ryegrass, Italian ([19]; 31 g ai/ha): 15
- Plant response rating: Ryegrass, Italian ([19]; 62 g ai/ha): 40
- Plant response rating: Ryegrass, Italian ([19]; 125 g ai/ha): 65
- Plant response rating: Ryegrass, Italian ([19]; 250 g ai/ha): 80
- Plant response rating: Wheat, Spring ([20]; 31 g ai/ha): 20
- Plant response rating: Wheat, Spring ([20]; 62 g ai/ha): 40
- Plant response rating: Wheat, Spring ([20]; 125 g ai/ha): 45
- Plant response rating: Wheat, Spring ([20]; 250 g ai/ha): 80
- Plant response rating: Wheat, Winter ([21]; 31 g ai/ha): 5
- Plant response rating: Wheat, Winter ([21]; 62 g ai/ha): 60
- Plant response rating: Wheat, Winter ([21]; 125 g ai/ha): 70
- Plant response rating: Wheat, Winter ([21]; 250 g ai/ha): 65
- Plant response rating: Windgrass ([22]; 31 g ai/ha): 85
- Plant response rating: Windgrass ([22]; 62 g ai/ha): 95
- Plant response rating: Windgrass ([22]; 125 g ai/ha): 95
- Plant response rating: Windgrass ([22]; 250 g ai/ha): 98
